Laboratory results from PMC9046208, “Foldamers reveal and validate therapeutic targets associated with toxic α-synuclein self-assembly” (Nature Communications, 2022).

Tests used:
[1] = biological target: T1, αS (Homo sapiens, UniProt P37840); assay: FP displacement titration of αS-SK-129F complex with SK-129; assay type: binding; conditions: displacement of SK-129F from αS-SK-129F complex by SK-129, n = 3
T1 construct: made in house; host or cells: Escherichia coli BL21(DE3), periplasm
Protocol: All Fluorescence Polarization (FP) experiments were conducted on a Varian Cary Eclipse fluorometer (Agilent, Santa Clara, CA) equipped with a polarizer. The stock solutions of αS, 1 mM or 100 μM in 1x PBS buffer, were serially added into a solution of 10 μM SK-129F (300 μL in 1x PBS buffer) while stirring in a quartz cuvette (Fireflysci, Staten Island, NY). All FP measurements were conducted in triplicates in 20 mM Tris, 100 mM NaCl, pH 7.2 at 20 °C. The excitation and emissions wavelengths were set at 490 nm and 520 nm, respectively. Each titration was equilibrated for five min before measurements were taken for the next addition of αS solution. The addition of αS solution was continuous until no more change in the FP signal was observed. Similar conditions were used for the titration of various αS mutants and Aβ42 peptide against SK-129F. […] The polarization of each point was calculated using Eq. 1:1 FP=I∥−I⊥/I∥+I⊥ Where I∥ is fluorescence intensity parallel to the excitation plane and I⊥ is fluorescence intensity perpendicular to the excitation plane. […]
affinity of SK-129 against αS. The fluorescence polarization titrations between SK129 and the preformed saturated complex of SK129 F-αS were conducted three times and each point in titrations was the average of three data points. […]

[2] = system: HEK293 cells expressing αS-A53T-YFP; assay: MTT assay, HEK293 cells αS-A53T-YFP, recombinant αS fibers; assay type: cell-based; design: key to MTT read-out (viability of HEK cells): absorbance at 570 nm (dissolved formazan); conditions: for MTT read-out (viability of HEK cells): 7 μM αS + SK-129 equimolar
Protocol: The HEK293 cells that stably express αS-A53T-YFP and αS-YFP were grown in DMEM with 10% FBS and 1% pen/strep and cultured in an incubator at 37 °C and 5% CO2(g). A total of 60,000 cells per well in 300 µL media were plated in a µ-slide eight-well plate (Ibidi, Munich, Germany) and incubated for 24 h to adhere to the plate. […] Next, the plate was incubated for 24 h, followed by the addition of 30 µL of 1x PBS buffer containing MTT dye (in 1x PBS buffer, 5 mg/mL) to each well. The plates were wrapped in aluminum foil and incubated for 3 h. After 3 h, all liquid was aspirated carefully without disturbing the formazan crystals. To each well, 300 µL of DMSO was added to dissolve the crystals. Once dissolved, the DMSO solution was transferred to a clear 96-well plate (100 µL/well). The absorbance was read on a 96-well plate reader at 570 nm. The cytotoxicity of the HEK cells was monitored for up to 4 days.
The seeds were generated by aggregating recombinant αS (100 µM) in the absence and presence of SK-129 at an equimolar ratio under the ThT aggregation kinetic conditions for seven days. In the case of seeds from the brain, we used a PMCA sample (5th cycle) generated from the brain seeds in the absence and presence of SK-129 at an equimolar ratio.

Kd [1]: 720 ± 60 nM
Compound: COC(=O)c1cc(OCC(=O)O)c2cccc(NC(=O)c3cc(OC(C)C)c4cccc(NC(=O)c5cc(OCC(=O)O)c6cccc(NC(=O)c7cc(OC(C)C)c8cccc([N+](=O)[O-])c8n7)c6n5)c4n3)c2n1 [SK-129]
MTT read-out (viability of HEK cells) ([2]; trial 1): 0.806
MTT read-out (viability of HEK cells) ([2]; trial 2): 0.8743
MTT read-out (viability of HEK cells) ([2]; trial 3): 0.8833
MTT read-out (viability of HEK cells) ([2]; trial 4): 0.8674
MTT read-out (viability of HEK cells) ([2]; trial 5): 0.8626
MTT read-out (viability of HEK cells) ([2]; trial 6): 0.8492
MTT read-out (viability of HEK cells) ([2]; trial 7): 0.941
MTT read-out (viability of HEK cells) ([2]; trial 8): 0.878
MTT read-out (viability of HEK cells) ([2]; trial 9): 0.892
MTT read-out (viability of HEK cells) ([2]; trial 10): 0.917
MTT read-out (viability of HEK cells) ([2]; trial 11): 0.805
MTT read-out (viability of HEK cells) ([2]; trial 12): 0.8882
MTT read-out (viability of HEK cells) ([2]; trial 13): 0.8431
MTT read-out (viability of HEK cells) ([2]; trial 14): 0.8823
MTT read-out (viability of HEK cells) ([2]; trial 15): 0.919
MTT read-out (viability of HEK cells) ([2]; trial 16): 0.8589
viability of HEK cells ([2]; αS aggregated with SK-129 equimolar, 7 μM, 24 h, αS alone 68%): 94%
